Laboratory results taken from patent US20240209011A1, “HETEROAROMATIC PHOSPHONIUM SALTS FOR TREATING CANCER” (FLORATEK PHARMA S.A., priority 2021, published 2024).
pIC50: −log10 of the molar value.

How the values were obtained:
Format in all cases: cell-based
breast cancer cell = test: Activity against breast cancer cells; details: breast cancer cell growth; Tables 5A and B
Procedure: (§1) Antitumor activity of the compounds and doxorubicin as a positive control was assessed by using the CellTiter-Blue Cell Viability Assay (Promega, #G8082) or CellTiter-Glow® Luminescent Cell Viability assay (Promega #G7572) according to the manufacturer's instructions. The compounds were tested at 5 or 6 concentrations in half-log increments (highest concentration 30 μM or 100 μM) in duplicate or triplicate well conditions.
(§2) Tumor cells were grown at 37° C. in a humidified atmosphere with 5% CO2 in RPMI 1640 or DMEM medium, supplemented with 10% (v/v) fetal calf serum and 50 μg/ml gentamicin for up to 20 passages, and were passaged once or twice weekly. Cells were harvested using TrypLE or PBS buffer containing 1 mM EDTA, and the percentage of viable cells is determined using a CASY Model TI cell counter (OMNI Life Science). Cells were harvested from exponential phase cultures, counted and plated in 96 well flat-bottom microtiter plates at a cell density depending on the cell line's growth rate (4,000-20,000 cells/well depending on the cell line's growth rate, up to 60,000 for hematological cancer cell lines) in RPMI 1640 or DMEM medium supplemented with 10% (v/v) fetal calf serum and 50 μg/ml gentamicin (140 μl/well). Cultures were incubated at 37° C. and 5% CO2 in a humidified atmosphere. After 24 h, 10 μl of test compounds or control medium were added, and left on the cells for another 72 h. Compounds were serially diluted in DMSO, transferred in cell culture medium, and added to the assay plates. The DMSO concentration was kept constant at <0.3% v/v across the assay plate. Viability of cells was quantified by the CellTiter-Blue® cell viability assay (Promega G8081) or CellTiter-Glow® Luminescent Cell Viability assay (Promega #G7572). Fluorescence (FU) was measured by using the EnSpire® multimode plate reader (Perkin Elmer) (excitation X=570 nm, emission λ=600 nm). Luminescence was measured with a microplate luminometer (Promega or PerkinElmer).
(§3) Sigmoidal concentration-response curves were fitted to the data points (test-versus-control, T/C values) obtained for each tumor model using 4 parameter non-linear curve fit (Charles River DRS Datawarehouse Software) or with GraphPad prism 5.02 software. IC50 values are reported as absolute IC50 values, being the concentration of test compound at the intersection of the concentration-response curves with T/C=50% Cell lines tested are presented in Table 1.

colon cancer cell = test: Activity against colon cancer cells; details: colon cancer cell growth; summary of Tables 7A-7D
Procedure: as §1, §2, §3

LoVo = test: Cell viability assay (CellTiter-Blue/CellTiter-Glow); details: Homo sapiens; colon carcinoma cell line LoVo; absolute IC50; 72 h
Procedure: as §1, §2, §3

MCF-7 = test: as above; details: Homo sapiens, MCF7; breast carcinoma cell line MCF-7; absolute IC50; 72 h
Procedure: as §1, §2, §3

PC-3 = test: as above; details: Homo sapiens; prostate carcinoma cell line PC-3; absolute IC50; 72 h
Procedure: as §1, §2, §3

MDA-MB-468 = test: as above; details: Homo sapiens; breast carcinoma cell line MDA-MB-468; absolute IC50; 72 h
Procedure: as §1, §2, §3

parental H69 cells = test: as above; details: Homo sapiens, NCI-H69; SCLC parental H69 cells
Procedure: as §1, §2, §3

HL-60 = test: as above; details: Homo sapiens; leukaemia cell line HL-60; absolute IC50; 72 h
Procedure: as §1, §2, §3

LNCaP = test: as above; details: Homo sapiens; prostate carcinoma cell line LNCaP; absolute IC50; 72 h
Procedure: as §1, §2, §3

HCT-116 = test: as above; details: Homo sapiens; colon carcinoma cell line HCT-116; absolute IC50; 72 h
Procedure: as §1, §2, §3

22Rv1 = test: as above; details: Homo sapiens; prostate carcinoma cell line 22Rv1; absolute IC50; 72 h
Procedure: as §1, §2, §3

leukaemia cell = test: Activity against leukaemia cells; details: leukaemia cell growth; Tables 13A and 13B
Procedure: as §1, §2, §3

prostate cancer cell = test: Activity against prostate cancer cells; details: prostate cancer cell growth; text summary of Table 21
Procedure: as §1, §2, §3

## O=c1cc(-c2ccc(CCC[P+](c3ccccc3)(c3ccccc3)c3ccccc3)cc2)oc2c(O)c(O)ccc12 [SND176, (3-(4-(7,8-Dihydroxy-4-oxo-4H-chromen-2-yl)phenyl)propyl)triphenylphosphonium bromide]
Breast cancer cell
  pIC50: > 4.70
Colon cancer cell
  pIC50: > 4.70
LoVo
  pIC50: 5.07
MCF-7
  pIC50: 4.74
PC-3
  pIC50: 5.14
MDA-MB-468
  pIC50: 5.85
Parental H69 cells
  pIC50: 5.15
HL-60
  pIC50: 5.84
LNCaP
  pIC50: 5.44
HCT-116
  pIC50: 5.06
22Rv1
  pIC50: 5.09
Leukaemia cell
  pIC50: > 4.70
Prostate cancer cell
  pIC50: > 5.00
